Measurements: BindingDB's records for patent WO2022098809 (Merck Sharp &Amp, 2022)

What follows are molecules tested against Mitogen-activated protein kinase kinase kinase kinase 1 (Homo sapiens, UniProt Q92918) (assay: HPK1-SLP76 TR-FRET ASSAY).
Protocol: Compounds are serially diluted (3-fold in 100% DMSO) across a 384-well polypropylene source plated from column 3 to column 12 and column 13 to column 22, to yield 10 concentration dose responses for each test compound. Columns 1, 2, 23 and 24 contain either only DMSO or a pharmacological known control inhibitor. […] Enzyme, Substrate and Stop/Detection solutions are prepared in assay buffer. […] Kinase reaction is initiated with addition of 2.5 μL of substrate solution (ATP 10uM and SLP7610 nM Final) and allowed to proceed for 60 minutes. […] Plates are incubated at room temperature for 30 minutes. Reactions are initiated by addition of 2.5 μL of 3x substrate solution (10 nM SLP76 and 10 uM ATP FInal) using BioRaptr. Plates are incubated at room temperature for one hour.

Chain of Mitogen-activated protein kinase kinase kinase kinase 1 (Q92918 whole entry): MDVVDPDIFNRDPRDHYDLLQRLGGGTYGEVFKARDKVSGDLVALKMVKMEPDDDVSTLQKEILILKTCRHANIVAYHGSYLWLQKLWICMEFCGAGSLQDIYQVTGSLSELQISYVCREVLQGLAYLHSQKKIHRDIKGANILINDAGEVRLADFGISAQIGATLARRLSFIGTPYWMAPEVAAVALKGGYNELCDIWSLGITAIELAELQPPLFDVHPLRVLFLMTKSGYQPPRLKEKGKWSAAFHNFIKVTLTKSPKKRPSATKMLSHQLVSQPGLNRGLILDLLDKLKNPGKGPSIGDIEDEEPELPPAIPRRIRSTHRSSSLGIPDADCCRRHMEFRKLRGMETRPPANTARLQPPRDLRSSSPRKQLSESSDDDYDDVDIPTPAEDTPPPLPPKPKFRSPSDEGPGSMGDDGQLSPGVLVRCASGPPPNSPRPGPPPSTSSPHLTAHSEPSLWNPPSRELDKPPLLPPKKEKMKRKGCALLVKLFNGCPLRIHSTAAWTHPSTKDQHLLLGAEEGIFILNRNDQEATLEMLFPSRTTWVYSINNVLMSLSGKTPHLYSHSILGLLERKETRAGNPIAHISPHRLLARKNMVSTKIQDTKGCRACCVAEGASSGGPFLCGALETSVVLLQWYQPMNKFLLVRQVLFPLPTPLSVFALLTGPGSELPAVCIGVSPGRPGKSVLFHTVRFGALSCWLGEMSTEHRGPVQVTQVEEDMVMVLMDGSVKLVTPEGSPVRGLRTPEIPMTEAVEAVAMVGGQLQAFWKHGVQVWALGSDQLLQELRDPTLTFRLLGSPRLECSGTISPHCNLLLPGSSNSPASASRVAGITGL

Row | Compound | IC50 [nM]
1 | COc1cc2c(cc1Nc1ncc(C(N)=O)c(Nc3ccc(C)cc3C3CC3)n1)CN(C)CC2 [WO2022098809, Example 4-26] | 0.17
2 | CCc1cc(C)ccc1Nc1nc(Nc2cc3c(cc2OC)CCN(C)C3)ncc1C(N)=O [WO2022098809, Example 4-27] | 0.08
3 | COc1cc2c(cc1Nc1ncc(C(N)=O)c(Nc3ccc(C)cc3C(C)(C)C)n1)CN(C)CC2 [WO2022098809, Example 4-28] | 0.26
4 | Cc1cc(F)c(Nc2nc(Nc3cc4c(cc3F)CCN(C)C4)ncc2C(N)=O)c(C(F)(F)F)c1 [WO2022098809, Example 4-29] | 0.2
5 | COc1cc2c(cc1Nc1ncc(C(N)=O)c(Nc3c(F)cccc3CC(F)F)n1)CN(C)CC2 [WO2022098809, Example 4-31] | 0.2
6 | CN1CCc2cc(F)c(Nc3ncc(C(N)=O)c(Nc4c(F)ccc5c4OC(C)(C)C5)n3)cc2C1 [WO2022098809, Example 4-32] | 1.13
7 | Cc1cccc(F)c1Nc1nc(Nc2c(C)nn(C)c2C)ncc1C(N)=O [WO2022098809, Example 4-35] | 158
